Key:
LPS-induced lethality = LPS-induced lethality (IP dosing); format: in vivo, mice; details: 11 × 300 μg/mouse IP (3.3 mg), every 4 hr; 0.6 mg LPS
Description: These experiments were performed based on information reported by Rivier etal., Endocrinology 125:2800-2805 (1989), which is incorporated herein by reference. Adult female Balb/c mice were provided food and water ad libitum. Mice were injected IP every four hr for 40 hr with 30 to 300 μg EX-2, EX-3 or EX-4 in 0.2 ml saline (treated group) or with 0.2 ml saline, alone (control group) (10 mice per group). Immediately following the first injection, 0.6 mg LPS endotoxin in 0.2 ml saline was administered to each mouse. Following LPS injection, EX-2 or saline was administered to the treated mice or the control mice, respectively, every 4 hr for 36 hr.

LPS-induced fever = assay: LPS-induced temperature increase (fever); format: in vivo, rats; details: 6 hr following LPS injection
Description: Male Wistar rats (45-75 days old) were placed in a temperature controlled room held at 26° C., which is thermoneutral for the normal body temperature of rats, and were maintained in the room with free access to food and water for 24 hr prior to testing. On the morning of the study, rats were marked for identification and weighed. The temperature of each rat was determined by placing the animal in a regulatory cage designed to minimize stress and inserting a temperature probe (YSI probe #402) 3-5 cm into the animal's rectum. The temperature was recorded 15 sec after the reading stabilized. Measurements were repeated 1 hr later to establish a baseline temperature for each rat.
After the baseline temperatures were established, rats were injected IP with saline, IL-1β or LPS endotoxin. Rats then were injected IP with either saline (control) or various concentrations of EX-2, EX-3, or EX-4 (treated). The temperature of the rats was measured every hr for 6 hr and the inhibition by EX-2, EX-3, or EX-4 of the rise in temperature due to IL-1β or LPS was determined.
In addition, treatment with 50 or 150 μg/kg EX-2 inhibited LPS-induced fever by 45% or 52%, respectively, when measured 6 hr following LPS injection. Furthermore, treatment with 150 μg/kg EX-3 or EX-4 inhibited LPS-induced fever by 57% and 52%, respectively (Table II).

[1] = system: kidney (cyclosporine-induced nephrotoxicity); assay: Cyclosporine-induced nephrotoxicity; format: in vivo, rats
Description: In the first study, male Sprague-Dawley rats (n=43) with a weight range of 240-290 g at the initiation of the cyclosporine A (CsA) treatment were divided into 4 weight matched groups. The groups were as follows: (1) Control: no CsA, no EX-2, treatment only with CsA vehicle (PBS) PO and EX-2 vehicle (also PBS) IP; (2) CsA: treatment with CsA (50 mg/kg in PBS administered PO daily at 0830 hr for 9 days) and IP injections of PBS (Ex-2 vehicle); (3) CsA and 50 μg: CsA treatment identical to group 2 with the addition of EX-2 (50 μg/kg IP administered daily at 0800 and 1700 hr in EX-2 vehicle); and (4) CsA and 500 μg: CsA treatment identical to groups 2 and 3, and EX-2 treatment protocol similar to group 3 except that the dose of EX-2 was 500 μg/kg BW. […] Renal blood flow was determined by the inulin extraction technique. […]
In the second study, male Sprague-Dawley rats (n=3l) with a weight range of 240-290 g at the time of initiation of the cyclosporine treatment were divided into 4 weight-matched groups. […] Renal hemodynamics were determined and extracellular fluid volumes were also assessed.
In the second study, where extracellular fluid volumes (ECF) were measured, there were no differences in ECF among control and treatment groups (27.6±1.9 in control, 27.5±1.7 in CsA and vehicle, 26.2±0.9 in CsA +200 μg/kg EX-2, and 25.7±1.4% in CsA +500 μg/kg EX-2). […]

[2] = system: kidney (cisplatin nephrotoxicity); assay: Cisplatin (CDDP) nephrotoxicity, renal function; format: in vivo, rats
Description: Male Sprague-Dawley were used to determine the effect of EX-2 on renal function after cisplatin (CDDP) administration. All rats were administered CDDP (4 mg/kg IP) and divided in 3 treatment groups (n=6/group). The groups were as follows: (1) Administration with vehicle and sterile PBS 3×/day; (2) Administration of EX-2 at a dose of 5 μg/kg, 3×/day; and (3) same as group 2 except the dose of EX-2 was 50 μg/kg, 3×/day. An infusion of ^3 H-inulin (0.6 μCi/ml in PBS) (2 ml/hr) was initiated at the end of the surgical preparation period. The continuous infusion was started 60 min prior to the renal function measurements and maintained to the end of the study. Glomerular filtration was assessed by inulin clearance techniques in two 30 min periods and renal blood flow (RBF) and renal plasma flow (RPF) were measured by inulin extraction techniques (arterial vs. renal vein inulin concentration) from left kidney renal vein blood sampled at the end of the second GFR measurement period. Urinary output was also monitored to determine both urine flow and fractional excretion of water. Urinary electrolyte (Na^+ and K^+) concentrations were analyzed by flame photometry (Model 51 Ca, Bacharch, inc.; Pittsburgh, Pa.) and urinary protein concentrations were determined. At the end of the measurement periods, the kidneys were removed for histological analysis.

[3] = system: STZ diabetes, blood glucose; assay: Streptozotocin-induced diabetes; format: in vivo, rats; details: 150 μg/kg every 8 hr for 72 hr; STZ 65 mg/kg iv
Description: Male Sprague-Dawley rats were given 65 mg/kg of streptozotocin (STZ) intravenously through the tall vein. Rats were divided into two groups. The first group was administered EX-2, 150 μg/kg every 8 hr for 72 hr and the second group was a control. Blood samples were withdrawn under ether anesthesia every 8 hr for the first 72 hr, then every 12 hr or 24 hr until the end of the observation period. Plasma samples were assayed for glucose using a glucose assay kit (Trinder, Sigma Chemical Co.). As shown in Table VI below EX-2 effect a 72% reduction in blood glucose levels.

[4] = CDDP 4 mg/kg IP + 5 μg/kg EX-2 3×/day
[5] = CDDP 4 mg/kg IP + 50 μg/kg EX-2 3×/day

Substance: Ac-Nle-Gln-His-(D)Phe-Arg-(D)Trp-Gly-NH2 [EX-2]
- Inhibition of LPS-induced Lethality (increase in survival vs control) (LPS-induced lethality): 83%
- Reduction in LPS-induced Fever (LPS-induced fever; 50 μg/kg IP): 45%
- Reduction in LPS-induced Fever (LPS-induced fever; 150 μg/kg IP): 52%
- renal blood flow ([1]; CsA-treated rats, EX-2 IP twice daily): improved blood flow to values not different from control
- GFR ([1]; compared to CsA and vehicle controls, in both studies): significantly increased GFR
- GFR [2, 4]: 0.8 ± 0.2
- RBF [2, 4]: 12.1 ± 2.0
- RPF [2, 4]: 6.5 ± 1.0 ml/mm
- GFR [2, 5]: 1.6 ± 0.4
- RBF [2, 5]: 16.8 ± 2.2
- RPF [2, 5]: 8.8 ± 1.1 ml/mm
- % Reduction, STZ Diabetes, Blood Glucose (mg/dl) [3]: 72%

— patent publication US5726156A, “Cytokine regulatory agents and methods of use in pathologies and conditions associated with altered cytokine levels” (Trega Biosciences, Inc., priority 1995, dated 1998)
